Consider four compounds from patent EP4635958A1, “PYRIMIDINE-CONTAINING POLYCYCLIC DERIVATIVE INHIBITOR, AND PREPARATION METHOD THEREFOR AND USE THEREOF” (Shanghai Hansoh Biomedical Co., Ltd., priority 2022, dated 2024).

Series [1] concerns human pancreatic cancer cell line (HPAC). Briefly: Antitumor efficacy in mouse transplanted tumor model of human pancreatic cancer cell line (HPAC). It is filed as in vivo, mice (BALB/c nude). To be noted: Table 12, HPAC xenograft, 100mpk, PO*BID; for Tumor volume (mm^3, Mean ± SD) Day 0: Day 0 (baseline). The text has this: 8-10 week old female conventional immunodeficient mice (BALB/c nude) with a body weight of 18 g-22 g were used as experimental animals, and a transplanted tumor model of human pancreatic cancer cell line (HPAC) was used to conduct in vivo efficacy experiments to test the anti-tumor results of the example compounds after gavage administration.
The example compounds of the present invention, made in house.
A certain amount of the example compound was weighed, and an appropriate amount of 10% vehicle (Solutol HS15) was added. The mixture was stirred on a magnetic stirrer for 0.5 h to formulate a homogeneous suspension at the desired concentration.
Human pancreatic cancer cell line (HPAC) was derived from COBIOER BIOSCIENCES CO., LTD, cultured on DMEM/F12 medium (Gibco, 11330-032) supplemented with 10% fetal calf serum (Gibco, 10091-148), 1×Insulin (51500-056, Gibco) and 10 ng/ml of EGF (PHG0311, Gibco) and observed under a microscope (Thermo Fisher, 311). The cells were routinely passaged when the cells reached 80%-90% confluence in the culture flask. The passaged cells were cultured in a 37°C, 5% CO2 incubator (Thermo Fisher, 311).
Under aseptic conditions, human pancreatic cancer cells (HPAC) in the logarithmic growth phase were harvested using 0.25% trypsin-EDTA (Gibco, 25200-056), washed and resuspended with phosphate buffer. The cell suspension was mixed with Matrigel (Corning, 356234) at a 1 : 1 ratio (v/v) and implanted subcutaneously into the right anterior dorsal region of immunodeficient mice (BALB/c nude). Each mouse was inoculated with 3*10^6 cells in a volume of 100 microliters (µL). After inoculation, when the tumor volume reached 100-200 mm^3, the mice would be evenly randomized into 5 groups based on the tumor size, with 5 mice per group, for in vivo efficacy experiments. The negative control group was the vehicle group.
Mode of administration: The example compounds were administered orally.
Twice a week, the long and short diameters of the tumor were measured using a vernier caliper, and the tumor volume (mm^3) was calculated using the formula: V = 0.5*D*d*d, where D and d are the long and short diameters of the tumor, respectively. The anti-tumor efficacy was determined by dividing the average increase in tumor volume of compound-treated animals by the average increase in tumor volume of untreated animals. The calculation formula for tumor inhibition rate was: When there is no tumor regression, TGI(%) = 100-[(Vt-V0) administration group/(Vt-V0) vehicle control group]*100%. When tumor regression occurs, TGI(%) = [1-(Vt-V0) administration group/V0 vehicle control group]*100%. All animals were euthanized after the experiment.
(In general: A xenograft is tissue or cells of one species grown in another, often human tumour cells in immunodeficient mice.)

The subject of another series is p-ERK in AGS cells. Briefly: Inhibition of p-ERK in AGS cells (LANCE Ultra phospho-ERK1/2 kit). The following applies: read-out: AGS_pERK IC50. The series is classed as cell-based. The protocol: 1. Experimental objective: The inhibition activity of the example compounds on the phosphorylated ERK level in KRAS G12D mutant cells AGS was determined. 2. Experimental instruments: • 2.1 Instruments: Envison; Pipette (Eppendorf & Rainin) • 2.2 Reagents: AGS cells were purchased from COBIOER BIOSCIENCES CO., LTD, with a catalog number of CBP60476; Phosphorylated ERK1/2 (T202-Y204) LANCE Ultra Cellular Detection Kit was purchased from PerkinElmer, with a catalog number of TRF4000M; RPMI 1640 was purchased from Gibco, with a catalog number of 22400071; FBS was purchased from Gibco, with a catalog number of 10091148; PBS was purchased from Gibco, with a catalog number of 10010023; trypsin was purchased from Gibco, with a catalog number of 25200056; cell culture plates were purchased from Corning Company, with a catalog number of 3610; White opaque OptiPlate™-384 plates were purchased from PerkinElmer, with a catalog number of 6007290. 3. Experimental method: When AGS cells were cultured to appropriate confluence, the AGS cells were collected, and the cell density was adjusted to 4 × 10^5/mL using complete culture medium. The cell suspension was plated onto a 96-well plate at 100 µL per well, and the plate was placed in the incubator at 37°C and 5% CO2 for adherent culture overnight. Solutions of the compound with different concentrations were formulated using DMSO and complete culture medium, and a vehicle control was set up. The solutions of the compound were added to the 96-well plate at 25 µL per well, and the plate was placed in the incubator at 37°C and 5% CO2 for further culture for 2 h. Then, the supernatant of the cell culture plate was discarded, 50 µL of lysis buffer was added to each well, the cells were lysed at room temperature under shaking for 30 min, then placed in a centrifuge and centrifuged at 1000 rpm for 1 min. 15 µL of supernatant was transferred to a 384-well plate, 5 µL of detection mixture was added to each well (Eu-labeled anti-ERK1/2 (T202-Y204) Antibody at a final detection concentration of 0.5 nM and ULight labeled anti-ERK1/2 Antibody at a final detection concentration of 5 nM), centrifuged at 1000 rpm for 1 min, mixed evenly, and reacted at room temperature overnight. The plate was read using Envison and the signal values at the emission wavelengths of 620 nm and 665 nm were detected using a time-resolved fluorescence program. 4. […] Graphpad Prism software was used to fit the concentration and inhibition rate to a nonlinear regression curve, so as to obtain the IC50 value. Table 5: Inhibition activity of the compounds on p-ERK in AGS cells
For orientation: TR-FRET usually uses a lanthanide donor and a delayed reading to cut background.

The subject of a further series is GP2D. Briefly: Inhibition of proliferation of KRAS G12D mutant tumor cell line GP2D (CellTiter-Glo). To be noted: read-out: GP2D IC50.
Series [2] can be described thus: Pharmacokinetic determination in rats (IV and PO, plasma, LCMS/MS). It is filed as in vivo, SD rats. To be noted: for AUC(0-inf): read-out: AUCo-∞. The method, boiled down:
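Male SD rats (3/group), fasted overnight, dosed PO at 30 mg/kg in 10% Captisol/50 mM citrate pH 5.0 or IV at 1 mg/kg in 5% DMSO/10% Solutol HS15/85% PBS. Jugular plasma (EDTA-2K) sampled predose to 24 h; analysed by LCMS/MS.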

A further series concerns AsPC-1. Briefly: Inhibition of proliferation of KRAS G12D mutant tumor cell line AsPC-1 (CellTiter-Glo). The series is classed as cell-based. The following applies: Homo sapiens, ASPC1, about 72 h. In a few lines: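 KRAS G12D-mutant AsPC-1 cells plated overnight at 37 °C/5% CO2, then exposed to serial compound dilutions (DMSO/medium, vehicle control) for about 72 h. Viability read by CellTiter-Glo luminescence; inhibition rate vs concentration fitted by nonlinear regression for IC50.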
In general terms: Cellular ATP, detected with luciferase, serves as a proxy for viable cell number.

The test system of series [3] is human colorectal cancer cell line (GP2D). Briefly: Anti-tumor efficacy in mouse transplanted tumor model of human colorectal cancer cell line (GP2D). It is filed as in vivo, mice (BALB/c nude).
Series [4] can be described thus: Pharmacokinetic determination in mice (IV and PO, plasma, LCMS/MS). The series is classed as in vivo, Balb/c mice. To be noted: male, Balb/c, mouse, in vivo. The method, boiled down:
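Male Balb/c mice, fasted overnight (n=3 per route): PO 30 mg/kg in 10% Captisol/50 mM citrate pH 5.0, or IV 1 mg/kg in 5% DMSO/10% Solutol HS15/85% PBS. Orbital blood sampled predose to 24 h; EDTA plasma analysed by LC-MS/MS.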

Setting [5] is: male, SD, rat, in vivo, iv, 1 mg/kg.
Setting [6] is: male, SD, rat, in vivo, po, 30 mg/kg.

In general, IC50 refers to the concentration at which inhibition is half-maximal. The Cmax is the highest concentration seen after dosing. In general, Tmax refers to the time from dosing to the highest level. What is called AUC is the area under the concentration-time curve, a measure of exposure. Low values mean less exposure, high ones more exposure.

Like-named read-outs stand apart in the source and are kept apart here.

Take “3-chloro-5-((5S,5aS,6R,9S)-5-ethyl-1-fluoro-12-((1-((4-(fluoromethylene)piperidin-1-yl)methyl-d2)cyclopropyl)methoxy-d2)-5a,6,7,8,9,10-hexahydro-5H-4-oxa-3,10a,11,13,14-pentaaza-6,9-methylnaphtho[1,8-ab]hept-2-yl)-4-(trifluoromethyl)aniline [Example 330]”: in series [1], the “Tumor volume (mm^3, Mean ± SD) Day 0” value is given as 468 mm^3; the “TGI(%) Day 14” value is recorded as 110.18%; the “ΔT/ΔC(%) Day 14” value was found to be 43.78%; the “Tumor volume (mm^3, Mean ± SD) Day 21” value came out at 418 mm^3. Further, the IC50 in the series on p-ERK in AGS cells (AGS cells, 2 h with compound) amounted to 3.8 nM. Besides, the IC50 in the series with GP2D (proliferation, about 72 h, CellTiter-Glo) was determined as 0.17 nM.

Take `C#Cc1c(F)ccc2cc(O)cc(-c3nc4c5c(nc(OCC6(CN7CCC(=CF)CC7)CC6)nc5c3F)N3C[C@H]5CC[C@H](N5)[C@H]3[C@H](CC)O4)c12` [Example 137, 4-((5S,5aS,6S,9R)-12-((1-((4-(fluoromethylene)piperidin-1-yl)methyl)cyclopropyl)methoxy)-5-ethyl-1-fluoro-5a,6,7,8,9,10-hexahydro-5H-4-oxa-3,10a,11,13,14-pentaaza-6,9-methylnaphtho[1,8-ab]hept-2-yl)-5-ethynyl-6-fluoronaphthalen-2-ol]: the IC50 was 5.8 nM in the series on p-ERK in AGS cells (Homo sapiens, AGS, 2 h) and 0.41 nM with GP2D (Homo sapiens, GP2d, 72 h). The compound also displayed a F in series [2] (PO 30 mg/kg vs IV 1 mg/kg, male SD rats) of 9.7%. Also, the AUC(0-inf) stood at 793 ng·h/mL in series [2] (rat, in vivo, IV, 1 mg/kg, male SD rats, overnight fasting, plasma) and 2110 ng·h/mL in series [2] (rat, in vivo, PO, 30 mg/kg, male SD rats, overnight fasting, plasma). The C0 in series [2] (rat, in vivo, IV, 1 mg/kg, male SD rats, overnight fasting, plasma, read-out: C0) was determined as 1630 ng/mL. The clearance in series [2] (rat, in vivo, IV, 1 mg/kg, male SD rats, overnight fasting, plasma, read-out: CL) is 21 mL/min/kg. Besides, the half-life in series [2] (rat, in vivo, IV, 1 mg/kg, male SD rats, overnight fasting, plasma, read-out: T1/2 (converted)) was 11.3 h; in series [2] (rat, in vivo, PO, 30 mg/kg, male SD rats, overnight fasting, plasma, read-out: T1/2 (converted)), 6.2 h. Moreover, the Cmax in series [2] (rat, in vivo, PO, 30 mg/kg, male SD rats, overnight fasting, plasma, read-out: Cmax) stood at 271 ng/mL. For the same compound, the Tmax in series [2] (rat, in vivo, PO, 30 mg/kg, male SD rats, overnight fasting, plasma, read-out: Tmax) came to 4 h.

Take `[2H]C([2H])([2H])[C@@H]1Oc2nc(-c3cc(N)cc(Cl)c3C(F)(F)F)c(F)c3nc(OC([2H])([2H])C4(C([2H])([2H])N5CCC(=NOC)CC5)CC4)nc(c23)N2C[C@H]3CC[C@H](N3)[C@@H]12` [Example 341, 1-((1-((((5S,5aS,6S,9R)-2-(5-amino-3-chloro-2-(trifluoromethyl)phenyl)-1-fluoro-5-(methyl-d3)-5a,6,7,8,9,10-hexahydro-5H-4-oxa-3,10a,11,13,14-pentaaza-6,9-methylnaphtho[1,8-ab]heptene-12-yl)oxy)methyl-d2)cyclopropyl)methyl-d2)piperidin-4-one O-methyloxime]: in series [1], the “Tumor volume (mm^3, Mean ± SD) Day 0” value is 469 mm^3; the “TGI(%) Day 14” value worked out at 161.42%; the “ΔT/ΔC(%) Day 14” value amounted to 18.73%; the “Tumor volume (mm^3, Mean ± SD) Day 21” value came to 180 mm^3. Besides, the IC50 in the series with p-ERK in AGS cells (Homo sapiens, AGS, 2 h) turned out to be 4.2 nM. For the same compound, the IC50 in the series on GP2D (Homo sapiens, GP2d, 72 h) was 0.1 nM. Further, the IC50 in the series with AsPC-1 was 2.6 nM.

Consider `C#Cc1c(F)ccc2cc(O)cc(-c3ncc4c(N5CC6CCC(C5)N6)nc(OC[C@@]56CCCN5C[C@H](F)C6)nc4c3F)c12` [MRTX-1133, reference compound], for which the “Tumor volume (mm^3, Mean ± SD) Day 0” value in series [3] (10mpk, IV*BID, Day 0) turned out to be 167 mm^3. For the same compound, in series [3] (10mpk, IV*BID, Day 14), the “TGI(%) Day 14” value turned out to be 143.79%; the “Tumor volume (mm^3, Mean ± SD) Day 14” value was found to be 94 mm^3; the “ΔT/ΔC(%) Day 14” value is reported as 11.89%. Also, in series [3] (intravenous administration dose of 10 mg/kg), the “tumor inhibition effect (in words)” value is reported as “inhibition effect of tumor regression”. In series [4] (iv, 1 mg/kg), this compound showed an area under the curve (AUC) of 305 ng·h/mL, a C0 of 854 ng/mL, a clearance of 55 mL/min/kg and a half-life of 11.1 h. In series [4] (po, 30 mg/kg), the highest level (Cmax) was 11 ng/mL and the Tmax came out at 2 h. Further, in series [2] (setting [5]), the AUC is 367 ng·h/mL, the C0 stood at 2490 ng/mL, the clearance amounted to 45 mL/min/kg and the half-life was 2.7 h. Moreover, in series [2] (setting [6]), the concentration peaked (Cmax) at 11 ng/mL and the Tmax was 2 h.
